Results as given in patent US20080119456A1, “Substituted Thiazoleacetic Acid as Crth2 Ligands” (priority 2004, published 2008).

What was measured:
human CRTH2 receptor = target: T1, human CRTH2 receptor (Homo sapiens, UniProt Q9Y5Y4, V204A); experiment: Receptor binding assay: [3H]PGD2 competition on whole COS-7 cells transfected with CRTH2; conditions: 0.1 nM [3H]PGD2, whole cells, 3 h at 4° C.
T1 construct: expressed in transfected cells; host or cells: COS-7 cells, transient, pcDNA3.1(+)
T1 sequence (Q9Y5Y4 1-395 V204A): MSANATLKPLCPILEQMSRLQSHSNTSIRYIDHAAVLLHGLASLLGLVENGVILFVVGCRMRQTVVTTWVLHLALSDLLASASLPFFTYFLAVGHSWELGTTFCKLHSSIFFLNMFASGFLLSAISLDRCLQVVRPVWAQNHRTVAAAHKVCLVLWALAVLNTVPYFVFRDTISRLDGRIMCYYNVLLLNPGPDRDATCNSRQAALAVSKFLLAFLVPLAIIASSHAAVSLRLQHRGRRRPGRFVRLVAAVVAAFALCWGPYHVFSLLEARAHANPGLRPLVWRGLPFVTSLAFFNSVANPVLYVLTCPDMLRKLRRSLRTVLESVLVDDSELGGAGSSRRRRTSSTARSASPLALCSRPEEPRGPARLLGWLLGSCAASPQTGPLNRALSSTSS
From the text: (§1) Generation/origin of the cDNA Constructs. The coding sequence of the human CRTH2 receptor (genbank accession no NM_004778) was amplified by PCR from a human hippocampus cDNA library and inserted into the pcDNA3.1(+) expression vector (invitrogen) via 5′ HindIII and 3′ EcoRI. To generate a CRTH2-Renilla luciferase (CRTH2-Rluc) fusion protein, the CRTH2 coding sequence without a STOP codon and Rluc were amplified, fused in frame by PCR and subcloned into the pcDNA3.1(+)Zeo expression vector (invitrogen). Human β-arrestin2 (β-arr2) N-terminally tagged with GFP^2 (βarr2-GFP^2) and Renilla luciferase were purchased from BioSignal Packard Inc, (Montreal, Canada). The sequence identity of the construct was verified by restriction endonuclease digests and sequencing in both directions on an ABI Prism (Applied Biosystems, Foster City, Calif.).
(§2) Cell Culture and Transfection. COS-7 cells were grown in Dulbecco's modified Eagle's medium (DMEM) 1885 supplemented with 10% fetal bovine serum, 100 units/ml penicillin, […] streptomycin, and kept at 37° C. in a 10% CO2 atmosphere. HEK293 cells were maintained in Minimum Essential medium (MEM) supplemented with 10% (v/v) heat inactivated fetal calf serum (HIFCS), 2 mM Glutamax™-I, 1% non essential amino acids (NEAA), 1% sodium pyruvate and 10 μg/ml gentamicin. For binding experiments, COS7 cells were transiently transfected with the CRTH2 receptor using a calcium phosphate-DNA coprecipitation method with the addition of chloroquine (as described by Hoist et al., 2001*). To perform the functional Bioluminescence Resonance Energy Transfer (BRET) assays, a HEK293 cell clone stably expressing βarr2-GFP^2 and CRTH2-Rluc was generated (CRTH2-HEK293 cells).
Binding assay. 24 h after transfection COS-7 cells were seeded into 96 well plates at a density of 30.000 cells/well. Competition binding experiments on whole cells were then performed about 18-24 h later using 0.1 nM [^3H]PGD2 (NEN, 172 Ci/mmol) in a binding buffer consisting of HBSS (GIBCO) and 10 mM HEPES. Competing ligands were diluted in DMSO which was kept constant at 1% (v/v) of the final incubation volume. Total and nonspecific binding were determined in the absence and presence of 10 μM PGD2. Binding reactions were routinely conducted for 3 h at 4° C. and terminated by 2 washes (100 μl each) with ice cold binding buffer. Radioactivity was determined by liquid scintillation counting in a TOPCOUNTER (Packard) following over night incubation in Microscint 20. Stable HEK293 cells were seeded at a density of 30.000 cells/well 18-24 h prior to the binding assay which was performed essentially as described for COS7 cells above. Determinations were made in duplicates.
(§3) Curve analysis was performed with the GraphPadPrism software 3.0 (Graphpad Prism Inc., San Diego, USA) and IC50 values were calculated as a measure of the antagonistic potencies.

human CRTH2-Rluc = target: T2, human CRTH2-Rluc (Homo sapiens, UniProt Q9Y5Y4, V204A); experiment: Functional antagonist BRET assay on HEK293 cells stably expressing CRTH2-Rluc and GFP2-β-arr2; type: cell-based; conditions: antagonist incubated 15 minutes before agonist, read-out: Antag. IC50
T2 construct: expressed in transfected cells
T2 sequence (Q9Y5Y4 1-395 V204A): T1 sequence (Q9Y5Y4 1-395 V204A)
From the text: as §1, §2
BRET assay. Functional BRET assays were performed on HEK293 cells stably expressing human CRTH2-Rluc and GFP^2-β-arr2. Prior to their use in the BRET assay cells were detached and re-suspended in D-PBS with 1000 mg/L L-Glucose at a density of 2×10^6 cells/mL. DeepBlueC™ was diluted to 50 μM in D-PBS with 1000 mg/L L-Glucose (light sensitive). 100 μL of cell suspension was transferred to wells in a 96-well microplate (white OptiPlate) and placed in the Mithras LB 940 instrument (BERTHOLD TECHNOLOGIES, Bad Wildbad, Germany). 12 μL/well agonist was then injected by injector 1 and 10 μL/well DeepBlueC™ was injected simultaneously by injector 2. Five seconds after the injections the light output from the well was measured sequentially at 400 nm and 515 nm, and the BRET signal (mBRET ratio) was calculated by the ratio of the fluorescence emitted by GFP^2-β-arr2 (515 nm) over the light emitted by the receptor-Rluc (400 nm). Antagonists were added before placing the microplates into the Mithras LB 940 and allowed to incubate for 15 minutes prior to the addition of agonist and DeepBlueC™. Compounds were dissolved in DMSO and the final DMSO concentration was kept constant at 1% in the assay.
as §3

Structure (SMILES) | IC50 (human CRTH2 receptor) [nM] | IC50 (human CRTH2-Rluc) [nM]
O=C(O)Cc1sc(C(Cc2ccccc2)c2ccc(Cl)cc2)nc1-c1ccc(Cl)cc1 (stereo not drawn) [Compound A9, {4-(4-Chloro-phenyl)-2-[1-(4-chloro-phenyl)-2-phenyl-ethyl]-thiazol-5-yl}-acetic acid] | < 500 | 500 to 5000
O=C(O)Cc1sc(C(c2ccccc2)c2ccccc2)nc1-c1cccc(F)c1 [Compound A23, [2-Benzhydryl-4-(3-fluoro-phenyl)-thiazol-5-yl]-acetic acid] | < 500 | < 500
O=C(O)Cc1sc(C(c2ccccc2)c2ccc(Cl)cc2)nc1-c1ccc(Cl)cc1 (stereo not drawn) [Compound A8, {4-(4-Chloro-phenyl)-2-[(4-chloro-phenyl)-phenyl-methyl]-thiazol-5-yl}-acetic acid] | < 500 | < 500
O=C(O)Cc1sc(Cc2ccccc2-c2ccc3c(c2)OCO3)nc1-c1ccc(F)cc1 [Compound A42, [2-(2-Benzo[1,3]dioxol-5-yl-benzyl)-4-(4-fluoro-phenyl)-thiazol-5-yl]-acetic acid] | < 500 | < 500
COc1cccc(-c2ccccc2Cc2nc(-c3ccc(F)cc3)c(CC(=O)O)s2)c1 [Compound A37, [4-(4-Fluoro-phenyl)-2-(3′-methoxy-biphenyl-2-ylmethyl)-thiazol-5-yl]-acetic acid] | < 500 | < 500
O=C(O)Cc1sc(C(c2ccccc2)c2ccccc2)nc1-c1ccc(F)cc1 [Compound A4, [2-Benzhydryl-4-(4-fluoro-phenyl)-thiazol-5-yl]-acetic acid] | < 500 | < 500
O=C(O)Cc1sc(C(c2ccccc2)c2ccccn2)nc1-c1ccc(Cl)cc1 (stereo not drawn) [Compound A28, [4-(4-Chloro-phenyl)-2-(phenyl-pyridin-2-yl-methyl)-thiazol-5-yl]-acetic acid] | < 500 | 500 to 5000
O=C(O)Cc1sc(C(c2ccccc2)c2ccc(Cl)cc2)nc1-c1ccc(F)cc1 (stereo not drawn) [Compound A10, [2-[(4-Chloro-phenyl)-phenyl-methyl]-4-(4-fluoro-phenyl)-thiazol-5-yl]-acetic acid] | < 500 | < 500
O=C(O)Cc1sc(C(c2ccccc2)c2ccccc2)nc1-c1ccc(Oc2ccccc2)cc1 [Compound A21, [2-Benzhydryl-4-(4-phenoxy-phenyl)-thiazol-5-yl]-acetic acid] | < 500 | 500 to 5000
O=C(O)Cc1sc(C2(c3ccccc3)CCNCC2)nc1-c1ccc(Cl)cc1 [Compound A46, [4-(4-Chloro-phenyl)-2-(4-phenyl-piperidin-4-yl)-thiazol-5-yl]-acetic acid] | 500 to 5000 | > 5000
O=C(O)Cc1sc(C(c2ccc(F)cc2)c2ccc(F)cc2)nc1-c1ccc(F)cc1 [Compound A14, [2-[Bis-(4-fluoro-phenyl)-methyl]-4-(4-fluoro-phenyl)-thiazol-5-yl]-acetic acid] | < 500 | < 500
O=C(O)Cc1sc(C(c2ccccc2)c2ccc(F)c(F)c2)nc1-c1ccc(F)cc1 (stereo not drawn) [Compound A18, [2-[(3,4-Difluoro-phenyl)-phenyl-methyl]-4-(4-fluoro-phenyl)-thiazol-5-yl]-acetic acid] | < 500 | < 500
CC(=O)N1CCC(c2ccccc2)(c2nc(-c3ccc(Cl)cc3)c(CC(=O)O)s2)CC1 [Compound A45] | < 500 | 500 to 5000
O=C(O)Cc1sc(C(c2ccccc2)c2ccccc2)nc1-c1ccc(F)c(F)c1 [Compound A26, [2-Benzhydryl-4-(3,4-difluoro-phenyl)-thiazol-5-yl]-acetic acid] | < 500 | < 500
O=C(O)Cc1sc(C(c2ccccc2)c2ccccc2)nc1-c1ccccc1 [Compound A11, (2-Benzhydryl-4-phenyl-thiazol-5-yl)-acetic acid] | 500 to 5000 | < 500
N#Cc1ccc(-c2ccccc2Cc2nc(-c3ccc(F)cc3)c(CC(=O)O)s2)cc1 [Compound A38, [2-(4′-Cyano-biphenyl-2-ylmethyl)-4-(4-fluoro-phenyl)-thiazol-5-yl]-acetic acid] | < 500 | < 500
O=C(O)Cc1sc(C(c2ccccc2)c2ccc(F)c(F)c2)nc1-c1ccc(Cl)cc1 (stereo not drawn) [Compound A17, {4-(4-Chloro-phenyl)-2-[(3,4-difluoro-phenyl)-phenyl-methyl]-thiazol-5-yl}-acetic acid] | < 500 | > 5000
O=C(O)Cc1sc(C(c2ccccc2)c2ccccc2)nc1-c1ccc(C(F)(F)F)cc1 [Compound A24, [2-Benzhydryl-4-(4-trifluoromethyl-phenyl)-thiazol-5-yl]-acetic acid] | 500 to 5000 | > 5000
